Assay results as given in patent US12520839B2, “Methods and compositions for cryopreservation of cell therapies” (The George Washington University, priority 2020, dated 2026).

Experiments:
Type in all cases: cell-based
[1] = test system: NK cells; experiment: CD16 expression on NK cells after cryopreservation and thawing
Procedure: (§1) A freezing medium (FM) was prepared having 50% RPMI, 40% FBS, 10% DMSO. FM was supplemented with the ADAM17 inhibitor TAPI-2 at amounts indicated in this example. Additionally, a wash medium (WM) was prepared having 50% RPMI, 40% FBS, 10% DMSO and supplemented with TAPI-2 at amounts indicated in this example.
(§2) Experiments were generally performed using in-vitro NK cells and T cells that were isolated and expanded for 14 days in culture. On day 14 of the culture, the NK cells and T cells were cryopreserved the using FM with or without TAPI-2. Then, cells were thawed using WM with or without TAPI-2.
CD16 expression is maintained in NK cells in presence of TAPI-2.

[2] = test system: T cells; experiment: CD62L expression on T cells after cryopreservation and thawing
Procedure: as §1, §2
CD62L expression is maintained in T cells in presence of TAPI-2.
Next, T cells were cryopreserved in freezing media without TAPI-2.

[3] = test system: NK cells and T cells; experiment: Cell viability after thawing, trypan blue exclusion; conditions: TAPI-2 added to freezing medium; immediately and 120 minutes after thawing; FIGS. 6A-6B
Procedure: (§3) Polyclonally activated T cells and expanded NK cells were expanded for 14 and 12 days respectively and cryopreserved using freezing media (FM) with or without TAPI-2 prepared as described in Example 1. Cryovials were then stored in liquid nitrogen tank.
Cryovials were thawed in water bath with cell wash performed, cell recovery (FIGS. 5A-5B) and viability (FIGS. 6A-6B) was assessed immediately after thawing. Cell viability was also assessed 120 minutes after thawing (FIGS. 6A-6B). Trypan blue exclusion method was use to evaluate cell viability.

[4] = test system: NK cells; experiment: NK-cell phenotype by flow cytometry after thawing
Procedure: as §3
Flow analysis was performed 120 minutes after thawing (except for NKG2D which expression was analyzed immediately after thawing).

For `CC(C)C[C@H](CC(=O)NO)C(=O)N[C@H](C(=O)N[C@@H](C)C(=O)NCCN)C(C)(C)C` [TAPI-2], the “CD16 expression after thawing” value ([1]; FM containing 50 μM TAPI-2, thawed and not washed, immediately after thawing and 2 hours thereafter, FIG. 1) was “able to maintain CD16 expression”, the “CD16 expression versus level prior to cryopreservation” value ([1]; NK cells cryopreserved in FM containing TAPI-2, FIG. 1) was “retained expression of CD16 to the same level as prior cryopreservation” and the “CD16 expression after washing with wash medium containing TAPI-2” value ([1]; frozen in freezing media without TAPI-2, wash media with 10 μM TAPI-2 (Thaw+), FIG. 2) was “showed CD16 expression”. For the same molecule, the “CD62L expression after thawing” value ([2]; FM containing 50 μM TAPI-2, thawed and not washed, immediately after thawing and 2 hours thereafter, FIG. 3) was “able to maintain CD62L expression”, the “CD62L expression versus level before cryopreservation” value ([2]; T cells cryopreserved in FM containing TAPI-2, FIG. 3) was “retained expression of CD62L to a level that was equal to that before cells were subjected to cryopreservation” and the “CD62L expression after washing with wash medium containing TAPI-2” value ([2]; frozen in freezing media without TAPI-2, wash media with 10 μM TAPI-2 (Thaw+), FIG. 4) was “showed CD62L expression”. For the same molecule, the cell viability [3] was “did not negatively affect”, the phenotype ([4]; TAPI-2 added to freezing medium, summary statement) was “did not negatively affect” and the NK-cell phenotype ([4]; TAPI-2 in the freezing media, flow analysis 120 minutes after thawing (NKG2D immediately after thawing), FIG. 7) was “not affected”.
